Experimental data: ChEMBL document CHEMBL1125174, “Conformationally restricted polysubstituted biphenyl derivatives with angiotensin II receptors antagonist properties” (J Med Chem, 1991)

Species: Oryctolagus cuniculus
Assay: The compound was tested for antagonism of AII-induced contraction of rabbit aorta rings.
Format: functional
Details: read-out: pA2 (converted)

| Structure (SMILES) | Kb [nM] |
| --- | --- |
| CCCCc1nc(CO)c(Cl)n1Cc1cc(OC)c(-c2ccccc2C(=O)O)c(OC)c1 | 3160 |
| CCCCc1nc(Cl)c(CO)n1Cc1ccc(-c2ccccc2C(=O)O)cc1 | 79.4 |
